Test results taken from patent US7928140B2, “Benzothiazole PI3 kinase modulators for cancer treatment” (Amgen Inc., priority 2007, dated 2011).
Where two headings read alike, the source gives them in different places.

Assays:
[1] = tested on: phosphorylation of Serine 473 in Akt, HCT 116 human colon carcinoma cells; assay: Cell-based phospho-AKT Ser473 assay (MSD sandwich immunoassay, IGF-1 stimulated); settings: read-out: HCT 116 pAKT IC50
Procedure: This assay determines the ability of test compounds to inhibit the phosphorylation of […] in Akt using a MSD based sandwich immunoassay (Meso Scale Detection, catalogue # N411CAB-1). […] Prior to the assay cells were detached from the culture flask with trypsin, and re-suspended in complete media to give a final concentration of 1.6×10^5 cells per ml. Aliquots (100 μl) of the HCT116 cell suspension were seeded into each well of a 96 well tissue culture plate (Corning Incorporated COSTAR, catalogue#3595) to give a final density of 16,000 cells per well. Cells were then incubated overnight at 37° C. The following day the cells were treated with serially diluted test compounds and incubated for 2 hours at 37° C. […] As a maximum response control, wells contained 0.5% DMSO in place of test compound. The plates were mixed at 700 rpm for 2 min to ensure even distribution of the test compound and incubated for 2 hours at 37° C. Cells were then stimulated with insulin-like growth factor 1 (Sigma, product #13769) at final concentration of 100 ng/ml for 15 minutes at 37° C. The media was then removed and the cells treated with 80 μl cell-lysis buffer (MSD) containing a cocktail of protease and phosphatase inhibitors for one hour at 4° C. […] The detection antibody was removed and plates were then washed four times with 200 μl per well of Tris wash buffer. An aliquot of 150 μl of diluted MSD read buffer was then applied to each well, and the electrochemiluminescent signal was measured using a MSD SECTORTM plate reader. This instrument measures the intensity of emitted light to determine a quantitative measure of phosphorylated Akt in each well. The dose-response data obtained with each compound were analyzed and the IC50 inhibition of Akt phosphorylation at Ser473 calculated.

[2] = molecular target: T1, PI3K β (Homo sapiens, UniProt P42338); assay: In vitro PI3 kinase enzyme assay (beta), ATP loss, bioluminescence; assay type: biochemical; settings: read-out: PI3Kβ ATP loss IC50;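 also: purified p110β/p85 heterodimer with PtdIns(4,5)P2 as acceptor, incubated at room temperature, leftover ATP read by luminescence, inhibition scaled to compound-free wells with and without enzyme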
T1 construct: Full length p110 subunits of PI3K α, β and δ, N-terminally labeled with polyHis tag; polyHis (N); made in house; host or cells: Sf9 insect cells (baculovirus)

[3] = molecular target: T2, PI3K α (Homo sapiens, UniProt P42336); assay: In vitro PI3 kinase enzyme assay (alpha), ATP loss, bioluminescence; assay type: biochemical; settings: read-out: PI3Kα ATP loss IC50;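 also: purified p110α/p85 heterodimer acting on PtdIns(4,5)P2 at room temperature, remaining ATP read by luminescence, inhibition scaled between compound-free wells with and without enzyme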
T2 construct: Full length p110 subunits of PI3K α, β and δ, N-terminally labeled with polyHis tag; polyHis (N); made in house; host or cells: Sf9 insect cells (baculovirus)

[4] = Homo sapiens, HCT-116, HCT 116 cells

T2 sequence (P42336 whole entry, species assumed): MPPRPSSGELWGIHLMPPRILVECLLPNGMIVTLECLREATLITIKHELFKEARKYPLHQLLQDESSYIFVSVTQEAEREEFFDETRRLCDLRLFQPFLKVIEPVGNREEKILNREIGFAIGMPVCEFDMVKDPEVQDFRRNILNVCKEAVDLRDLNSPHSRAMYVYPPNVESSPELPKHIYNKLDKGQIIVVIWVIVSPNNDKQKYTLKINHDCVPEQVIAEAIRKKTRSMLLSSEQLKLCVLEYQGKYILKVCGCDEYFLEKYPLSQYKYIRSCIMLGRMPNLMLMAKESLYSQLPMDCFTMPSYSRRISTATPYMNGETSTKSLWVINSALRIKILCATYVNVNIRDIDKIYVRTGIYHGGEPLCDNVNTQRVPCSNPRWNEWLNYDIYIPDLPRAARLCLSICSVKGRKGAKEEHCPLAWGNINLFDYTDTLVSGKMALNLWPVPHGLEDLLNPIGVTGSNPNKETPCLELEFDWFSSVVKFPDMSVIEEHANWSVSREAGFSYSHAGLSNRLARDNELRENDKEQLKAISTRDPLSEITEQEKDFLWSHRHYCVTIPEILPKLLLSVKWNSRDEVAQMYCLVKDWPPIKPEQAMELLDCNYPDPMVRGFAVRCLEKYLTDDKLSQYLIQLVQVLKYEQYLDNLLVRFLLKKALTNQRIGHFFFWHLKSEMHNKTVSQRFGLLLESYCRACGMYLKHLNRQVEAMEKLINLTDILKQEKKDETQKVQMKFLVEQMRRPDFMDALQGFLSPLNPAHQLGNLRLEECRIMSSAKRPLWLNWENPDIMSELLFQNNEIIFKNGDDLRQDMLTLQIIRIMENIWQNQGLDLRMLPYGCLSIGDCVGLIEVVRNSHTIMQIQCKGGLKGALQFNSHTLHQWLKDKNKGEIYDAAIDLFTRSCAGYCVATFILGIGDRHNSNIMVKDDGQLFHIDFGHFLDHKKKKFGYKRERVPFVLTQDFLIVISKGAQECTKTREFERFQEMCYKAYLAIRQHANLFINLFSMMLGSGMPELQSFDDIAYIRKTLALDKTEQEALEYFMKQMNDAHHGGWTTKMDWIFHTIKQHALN
T2 sequence (P27986 whole entry partner, species assumed): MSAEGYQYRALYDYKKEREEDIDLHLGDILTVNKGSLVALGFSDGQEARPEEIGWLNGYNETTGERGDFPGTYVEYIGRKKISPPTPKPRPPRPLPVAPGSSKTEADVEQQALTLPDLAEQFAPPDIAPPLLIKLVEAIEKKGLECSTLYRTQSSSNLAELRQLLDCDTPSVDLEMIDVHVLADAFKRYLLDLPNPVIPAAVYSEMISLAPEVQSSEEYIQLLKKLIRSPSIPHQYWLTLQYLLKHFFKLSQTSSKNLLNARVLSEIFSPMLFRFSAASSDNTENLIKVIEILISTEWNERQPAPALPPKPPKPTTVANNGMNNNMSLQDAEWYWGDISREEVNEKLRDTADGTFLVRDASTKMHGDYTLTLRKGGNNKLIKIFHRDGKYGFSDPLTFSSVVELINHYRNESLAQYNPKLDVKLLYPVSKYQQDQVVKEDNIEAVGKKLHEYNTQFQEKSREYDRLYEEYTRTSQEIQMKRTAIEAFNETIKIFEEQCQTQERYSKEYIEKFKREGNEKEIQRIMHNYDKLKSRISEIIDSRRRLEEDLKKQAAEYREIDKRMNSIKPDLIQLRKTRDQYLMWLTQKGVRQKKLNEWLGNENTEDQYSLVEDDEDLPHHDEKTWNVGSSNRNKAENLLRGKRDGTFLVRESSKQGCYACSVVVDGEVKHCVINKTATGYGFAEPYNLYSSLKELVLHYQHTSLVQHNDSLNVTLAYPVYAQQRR
T1 sequence (P42338 whole entry): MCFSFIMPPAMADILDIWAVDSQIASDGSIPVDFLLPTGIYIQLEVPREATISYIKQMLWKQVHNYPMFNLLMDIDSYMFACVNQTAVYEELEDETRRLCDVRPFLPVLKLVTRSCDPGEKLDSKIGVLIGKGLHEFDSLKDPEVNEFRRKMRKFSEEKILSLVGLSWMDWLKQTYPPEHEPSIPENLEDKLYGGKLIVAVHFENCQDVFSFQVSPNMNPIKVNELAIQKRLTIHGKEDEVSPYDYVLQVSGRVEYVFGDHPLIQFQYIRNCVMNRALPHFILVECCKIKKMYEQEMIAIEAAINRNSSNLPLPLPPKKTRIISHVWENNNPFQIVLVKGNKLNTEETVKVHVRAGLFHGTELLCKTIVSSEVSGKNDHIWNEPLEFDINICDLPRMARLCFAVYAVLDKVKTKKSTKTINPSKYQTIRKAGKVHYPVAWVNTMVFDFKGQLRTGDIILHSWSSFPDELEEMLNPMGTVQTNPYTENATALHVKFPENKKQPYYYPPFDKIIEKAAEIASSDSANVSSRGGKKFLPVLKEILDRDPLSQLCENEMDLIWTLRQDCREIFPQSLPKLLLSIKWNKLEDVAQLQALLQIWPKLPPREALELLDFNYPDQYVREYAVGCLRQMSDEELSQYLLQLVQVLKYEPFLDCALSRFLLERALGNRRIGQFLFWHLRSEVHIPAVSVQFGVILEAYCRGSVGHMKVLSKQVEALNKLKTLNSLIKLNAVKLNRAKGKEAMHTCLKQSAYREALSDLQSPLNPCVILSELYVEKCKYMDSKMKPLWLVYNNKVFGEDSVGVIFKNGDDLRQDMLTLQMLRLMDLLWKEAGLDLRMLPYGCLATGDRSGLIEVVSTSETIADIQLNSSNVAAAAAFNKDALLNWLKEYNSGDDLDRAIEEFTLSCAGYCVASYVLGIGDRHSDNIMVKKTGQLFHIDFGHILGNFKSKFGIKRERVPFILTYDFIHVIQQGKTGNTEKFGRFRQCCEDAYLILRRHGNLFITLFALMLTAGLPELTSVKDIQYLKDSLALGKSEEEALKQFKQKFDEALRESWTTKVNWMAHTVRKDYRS
T1 sequence (P27986 whole entry partner): as the sequence (P27986 whole entry partner, species assumed) above

| Molecule | IC50 [1, 4] [nM] | IC50 [2] [nM] | IC50 ([1]; HCT 116 cells) [nM] | IC50 [3] [nM] |
| --- | --- | --- | --- | --- |
| CC(=O)Nc1nc2ccc(-c3cnc(Cl)c(NS(=O)(=O)c4cccc(Cl)c4)c3)cc2s1 [Example 185, N-(6-(6-chloro-5-(3-chlorophenylsulfonamido)pyridin-3-yl)benzo[d]thiazol-2-yl)acetamide] | 5.9 | 8.1 |  |  |
| CC(=O)Nc1nc2ccc(-c3ccnc(NS(=O)(=O)c4ccc(F)cc4)n3)cc2s1 [Example 80, N-(6-(2-(((4-fluorophenyl)sulfonyl)amino)-4-pyrimidinyl)-1,3-benzothiazol-2-yl)acetamide] | 3220 | 405 |  |  |
| CC(=O)Nc1nc2ccc(-c3cnc(Cl)c(NS(=O)(=O)c4ccc(Cl)cc4)c3)cc2s1 [Example 180, N-(6-(6-chloro-5-(4-chlorophenylsulfonamido)pyridin-3-yl)benzo[d]thiazol-2-yl)acetamide] | 12.6 | 8.7 |  |  |
| CC(=O)Nc1nc2ccc(-c3ccnc(NC(C)(C)c4ccccc4)n3)cc2s1 [Example 100] | 698 | 595 |  |  |
| CC(=O)Nc1nc2ccc(-c3ccnc(OCc4ccc(F)cc4)n3)cc2s1 [Example 39, N-(6-(2-((4-fluorobenzyl)oxy)-4-pyrimidinyl)-1,3-benzothiazol-2-yl)acetamide] | > 40000 | 7910 |  |  |
| CCN(c1nccc(-c2ccc3nc(NC(C)=O)sc3c2)n1)S(=O)(=O)c1ccc(OC)cc1 [Example 89, N-(6-(2-(N-Ethyl-4-methoxyphenylsulfonamido)pyrimidin-4-yl)benzo[d]thiazol-2-yl)acetamide] | 692 | 442 |  |  |
| CC(=O)Nc1nc2ccc(-c3cnc(Cl)c(NS(=O)(=O)c4ccc(C(F)(F)F)cc4)c3)cc2s1 [Example 190, N-(6-(6-chloro-5-(4-(trifluoromethyl)phenylsulfonamido)pyridin-3-yl)benzo[d]thiazol-2-yl)acetamide] | 11.5 | 7.4 |  |  |
| N-(6-(2-(3-morpholino)propoxy)-4-pyrimidinyl)-1,3-benzothiazol-2-yl)acetamide [Example 10] |  | 11000 | 801 |  |
| CC(=O)Nc1nc2ccc(-c3cncc(NC(C)(C)C)n3)cc2s1 [Example 227, N-(6-(6-(tert-butylamino)pyrazin-2-yl)benzo[d]thiazol-2-yl)acetamide] | 362 |  |  |  |
| CC(=O)Nc1nc2ccc(-c3cncc(N4CC5CCC(CC5)C4)n3)cc2s1 [Example 300, N-(6-(6-(3-aza-bicyclo[3.2.2]nonan-3-yl)pyrazin-2-yl)benzo[d]thiazol-2-yl)acetamide] | 8940 |  |  |  |
| CC(=O)Nc1nc2ccc(-c3ccc(Cl)nc3)cc2s1 [Example 297, N-(6-(6-chloropyridin-3-yl)benzo[d]thiazol-2-yl)acetamide] | 1190 |  |  |  |
| COCC(=O)NCCOc1cncc(-c2ccc3nc(NC(C)=O)sc3c2)c1 [Example 298, N-(2-(5-(2-(N-actyl)aminobenzo[d]thiazol-6-yl)pyridin-3-yloxy)ethyl)-2-methoxyacetamide] | 1830 |  |  |  |
| CC(=O)Nc1nc2ccc(-c3cnc(Cl)c(NS(=O)(=O)c4ccc(F)cc4)c3)cc2s1 [Example 162, N-(6-(6-Chloro-5-(4-fluorophenylsulfonamido)pyridin-3-yl)benzo[d]thiazol-2-yl)acetamide] | 10.4 |  |  |  |
| CC(=O)Nc1nc2ccc(-c3cnccc3OC(F)F)cc2s1 [Example 248, N-(6-(4-(difluoromethoxy)pyridin-3-yl)benzo[d]thiazol-2-yl)acetamide] |  | 17100 |  | 3840 |
| CC(=O)Nc1nc2ccc(-c3cncc(O)c3)cc2s1 [Example 296, N-(6-(5-hydroxypyridin-3-yl)benzo[d]thiazol-2-yl)acetamide] | 418 |  |  |  |
| CC(=O)Nc1nc2ccc(-c3ccnc(Sc4ccccc4C(C)(C)C)n3)cc2s1 [Example 30, N-(6-(2-((2-tert-butylphenyl)sulfanyl)-4-pyrimidinyl)-1,3-benzothiazol-2-yl)acetamide] |  | 1420 |  | 908 |
| CC(=O)Nc1nc2ccc(-c3cncc(OCCN4CCC(C)(C)C4=O)c3)cc2s1 [Example 252] |  | 45000 |  | 2920 |
| Nc1nc2ccc(-c3nnc(NS(=O)(=O)c4ccc(F)cc4)o3)cc2s1 [Example 168, N-(5-(2-aminobenzo[d]thiazol-6-yl)-1,3,4-oxadiazol-2-yl)-4-fluorobenzenesulfonamide] |  | 816 |  | 665 |
| CC(=O)Nc1nc2ccc(-c3cncc(OC[C@H]4CCC(=O)N4)c3)cc2s1 [Example 294, N-(6-(5-(((R)-5-oxopyrrolidin-2-yl)methoxy)pyridin-3-yl)benzo[d]thiazol-2-yl)acetamide] | > 5000 |  |  |  |
| CC(C)(C)OC(=O)Nc1nc2ccc(-c3nnc(NS(=O)(=O)c4ccc(F)cc4)o3)cc2s1 [Example 167, tert-Butyl 6-(5-(4-fluorophenylsulfonamido)-1,3,4-oxadiazol-2-yl)benzo[d]thiazol-2-ylcarbamate] |  | 5800 |  | 663 |
| CC(=O)Nc1nc2ccc(-c3ccnc(Sc4ccc(Cl)cc4)n3)cc2s1 [Example 138, N-(6-(2-((4-chlorophenyl)sulfanyl)-4-pyrimidinyl)-1,3-benzothiazol-2-yl)acetamide] |  | 2880 |  | 69.9 |
| CC(=O)Nc1nc2ccc(-c3ccnc(Sc4cc(C)cc(C)c4)n3)cc2s1 [Example 149, N-(6-(2-((3,5-dimethylphenyl)sulfanyl)-4-pyrimidinyl)-1,3-benzothiazol-2-yl)acetamide] |  | 387 |  | 186 |
| CC(=O)Nc1nc2ccc(-c3cnc(Cl)c(OC(C)C#N)c3)cc2s1 (stereo not drawn) [Example 290, N-(6-(6-chloro-5-(1-cyanoethoxy)pyridin-3-yl)benzo[d]thiazol-2-yl)acetamide] |  | 747 |  | 111 |
| CC(=O)Nc1nc2ccc(-c3ccnc(N(C)S(=O)(=O)c4ccsc4)n3)cc2s1 [Example 209, N-(6-(2-(N-methylthiophene-3-sulfonamido)pyrimidin-4-yl)benzo[d]thiazol-2-yl)acetamide] |  | 855 |  | 185 |
| COc1ccc(S(=O)(=O)Nc2cc(-c3ccc4nc(NC(C)C)sc4c3)cnc2Cl)cc1 [Example 305, N-(2-chloro-5-(2-((1-methylethyl)amino)-1,3-benzothiazol-6-yl)-3-pyridinyl)-4-methoxybenzenesulfonamide] |  | 224 |  | 58.9 |
| CN(C)c1cc(-c2ccc3nc(NS(C)(=O)=O)sc3c2)cnc1Cl [Example 276, N-(6-(6-chloro-5-(dimethylamino)pyridin-3-yl)benzo[d]thiazol-2-yl)methanesulfonamide] |  | 29900 |  | 1720 |
| CC(=O)Nc1nc2ccc(-c3cccc(N(C)S(=O)(=O)c4ccccc4F)n3)cc2s1 [Example 226, N-(6-(6-(2-fluoro-N-methylphenylsulfonamido)pyridin-2-yl)benzo[d]thiazol-2-yl)acetamide] |  | 576 |  | 161 |
| Nc1nc2ccc(-c3cccc(NS(=O)(=O)c4ccccc4F)n3)cc2s1 [Example 72, N-(6-(2-amino-1,3-benzothiazol-6-yl)-2-pyridinyl)-2-fluorobenzenesulfonamide] |  | 1600 |  | 2270 |
| CC(=O)Nc1nc2ccc(-c3ccnc(NN4CCCCC4)n3)cc2s1 [Example 265, N-(6-(2-(piperidin-1-ylamino)pyrimidin-4-yl)benzo[d]thiazol-2-yl)acetamide] |  | 40800 |  | 2600 |
